# Source: patent US20140366219A1, “Increasing Soybean Defense Against Pests” (priority 2011, published 2014)
# Where “and” joins values, the source holds several entries; their conditions need not be identical. Identical values can stand only once.
# T1: GmSAMT1 (Glycine max, UniProt B5A7G5)
# T1 sequence (B5A7G5 1-370): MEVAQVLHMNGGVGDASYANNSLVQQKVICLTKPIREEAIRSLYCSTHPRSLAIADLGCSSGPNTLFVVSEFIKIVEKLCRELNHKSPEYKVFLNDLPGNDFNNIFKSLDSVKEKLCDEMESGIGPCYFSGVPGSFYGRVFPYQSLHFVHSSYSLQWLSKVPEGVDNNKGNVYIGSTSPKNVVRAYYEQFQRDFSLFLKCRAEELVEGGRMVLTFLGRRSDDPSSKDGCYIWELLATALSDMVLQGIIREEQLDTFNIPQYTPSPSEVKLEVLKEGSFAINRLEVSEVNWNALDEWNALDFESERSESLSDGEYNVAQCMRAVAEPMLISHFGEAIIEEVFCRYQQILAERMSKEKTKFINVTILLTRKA
# What was measured:
# [1] = biological target: T1, GmSAMT1; experiment: Radiochemical SAMT activity assay, substrate specificity of recombinant GmSAMT1; assay type: biochemical, soybean; settings: all substrates at 1 mM, activity with salicylic acid set at 100%, average of three measurements
# Method: (§1) A 50 μl volume containing 50 mM Tris-HCl, pH 7.5, 1 mM SA, and 3 μM ^14C-SAM with a specific activity of 51.4 mCi/mmol (Perkin-Elmer, Boston, Mass.) was used. The assay was initiated by addition of SAM, maintained at 25° C. for 30 min, and stopped by the addition of ethyl acetate (150 μl). After phase separation by 1 min centrifugation at 14,000 g, the upper organic phase was counted using a liquid scintillation counter (Beckman Coulter, Fullerton, Calif.). The radiation counts in the organic phase indicated the amount of synthesized MeSA. Substrate specificity assay was also performed for recombinant GmSAMT1, with a range of substrates including SA, benzoic acid, anthranilic acid, 3-hydroxybenzoic acid, 4-hydroxybenzoic acid, nicotinic acid, p-coumaric acid, caffeic acid, cinnamic acid, vanallic acid, jasmonic acid (JA), gibberellic acid, indole-3-acetic acid, and 2,4-dichlorophenoxyacetic acid. The activity with SA was set at 100%. Three independent assays were performed for each compound.
# [2] = biological target: T1, GmSAMT1; experiment: Effects of metal ions on activity of GmSAMT1; assay type: biochemical, soybean; settings: chloride salts at 5 mM final concentration; control without metal ion set at 1.0
# Method: as §1
# Appropriate enzyme concentrations and incubation time were determined in time course assays to make sure that the reaction velocity was linear during the assay period. Lineweaver-Burk plots yielded apparent Km values. To determine the Km for SA, concentrations of SA were independently varied from 2 to 150 μM, while SAM was held constant at 200 μM. Assays were conducted at 25° C. for 30 min, as described in SAMT activity assay. The optimal pH for GmSAMT1 was assayed from pH 6.0 to pH 9.0, and optimal reaction of temperature was assayed ranging from 0° C. to 60° C. Effects of metal ions on activity of GmSAMT1 were assayed with a range of metal ions, including K^+, Cu^2+, Zn^2+, Fe^2+, Fe^3+, Mn^2+, Ca^2+, Na^+, NH4^+, and Mg^2+, in the form of chloride salts at 5 mM final concentrations.
# [3] = substrate: O=C(O)c1ccccc1O; experiment: Determination of kinetic parameters of GmSAMT1 (Lineweaver-Burk); assay type: biochemical, soybean; settings: other: SA varied 2 to 150 μM, SAM 200 μM, 25° C., 30 min
# Method: as §1
# Appropriate enzyme concentrations and incubation time were determined in time course assays to make sure that the reaction velocity was linear during the assay period. Lineweaver-Burk plots yielded apparent Km values. To determine the Km for SA, concentrations of SA were independently varied from 2 to 150 μM, while SAM was held constant at 200 μM. […]
# [4] = system: SCN race 2; experiment: Nematode infection and demographics assay in transgenic soybean hairy roots; assay type: in vivo, Heterodera glycines; settings: TN02-275 background; susceptibility of vector control in susceptible background set at 100%
# Description: The soybean hairy root transformation system by infection with A. rhizogenes harboring the target genes were modified and used to study soybean resistance against SCN. A. rhizogenes K599 harboring the target gene, vector control and A. rhizogenes K599 alone were used to inoculate the TN02-275 soybeans, which are susceptible to SCN race 2. To better evaluate the resistance of the target gene, A. rhizogenes harboring the vector control and A. rhizogenes K599 alone were also used to inoculate the TN02-226 soybeans, which are resistant to SCN race 2. Generation of soybean hairy roots was modified as follows: First, soybean seeds were sterilized with chlorine gas. Second, a single layer of mature soybean seeds with intact seed coats were placed in open Petri dish, which was put in a bell jar desiccator within a fume hood. A beaker with 100 ml bleach was also placed in the desiccator and added 5 ml concentrated (12N) HCl along the side of the beaker. Then the seeds were kept in the closed desiccator immediately and maintained in the chlorine gas atmosphere overnight (about 16 h). After sterilization, seeds were transferred to the autoclaved filter paper moistened with sterilized distilled water in the Petri dishes for germination in a laminar flow hood. The germinated soybean seeds were sowed in sterilized vermiculite and six seeds were grown in each cell of 18-cell germination tray. The overnight cultured bacteria lawn of A. rhizogenes K599 with binary vector pJL-OFP, pJL-OFP-35S::GUS or pJL-OFP-35S::GmSAMT1 from LB medium plate containing […] kanamycin, or a culture of A. rhizogenes K599 lacking the binary vector grown in LB medium without any antibiotics was collected and suspended in 1 ml of sterile distilled water, respectively. Soybean cotyledonary nodes and upper hypocotyls of 5-day-old seedlings with unfolded cotyledons were stabbed three times by the syringe containing the bacterial suspension. In the first week, the trays were covered with the sterile transparent lids to retain high humidity. In the subsequent three weeks, plants were transferred into pots and the A. rhizogenes wounding sites were covered by wet sterile vermiculite to continually keep high humidity. Each day soybean plants were watered using sterile B&D solution containing 1 mM CaCl2, 0.5 mM KH2PO4, 10 μM Fe-citrate, 0.25 mM MgSO4, 0.25 mM K2SO4, 1 μM MnSO4, 2 μM H3BO4, 0.5 μM ZnSO4, 2 μM CuSO4, 0.1 μM CoSO4, 0.1 μM Na2MoO4, and 1 mM KNO3. The growth conditions for soybean plants were 12 h light/12 h dark at 28° C./25° C. with irradiance from fluorescent bulbs at 150-200 μmol m^−2·s^−1. After about four weeks, the hairy roots grew to approximately 10 cm in length. Soybean transgenic roots were detected based on OFP expression, using a fluorescence stereomicroscope (Olympus SZX12 fluorescence microscope and OFP filter). The tap root and non-transgenic roots were excised under the wounding site. Transgenic roots harboring pJL-OFP-35S::GUS screened by OFP signal were immersed in GUS solution (1 mM X-Gluc), 0.5 mM potassium ferrocyanide, 0.1% (v/v) TRITON™ X-100, 100 mM sodium phosphate buffer pH 7.0), and incubated at 37° C. overnight. In the following day, the X-Gluc solution was discarded. The roots were washed repeatedly with 70% ethanol to remove chlorophyll. Transgenic roots with visual GUS stain were recorded.
# To easily compare the SCN infection, one transgenic root was left for the SCN inoculation. […]
Molecule,Relative activity of GmSAMT1 with substrate [1] [%],effect of metal ion on GmSAMT1 activity compared with control [2],further results
"Nc1ccccc1C(=O)O [Anthranilic acid, anthranilic acid]",9.3,–,–
"CC/C=C\C[C@H]1C(=O)CC[C@@H]1CC(=O)O [Jasmonic acid, jasmonic acid]",0,–,Relative activity of GmSAMT1 with substrate ([1]; listed as JA): no activity was detected
"O=C(O)c1ccc(O)cc1 [4-Hydroxybenzoic acid, 4-hydroxybenzoic acid]",0,–,–
[Cl-].[Cl-].[Zn+2] [Zn^2+],–,no activity,–
"O=C(O)c1ccccc1O [Salicylic acid, salicylic acid]",100,–,–
[Cl-].[Na+] [Na^+],–,minimal effect,–
"O=C(O)/C=C/c1ccc(O)cc1 [p-Coumaric acid, p-coumaric acid]",0,–,–
[Cl][Fe][Cl] [Fe^2+],–,no activity,–
[Cl-].[Cl-].[Mg+2] [Mg^2+],–,minimal effect,–
"COc1cc(C(=O)O)ccc1O [Vanallic acid, vanallic acid]",0,–,–
"O=C(O)c1cccnc1 [Nicotinic acid, nicotinic acid]",0,–,–
"C=C1C[C@]23C[C@@]1(O)CC[C@H]2[C@@]12C=C[C@H](O)[C@@](C)(C(=O)O1)[C@H]2[C@@H]3C(=O)O [Gibberellic acid, gibberellic acid]",0,–,Relative activity of GmSAMT1 with substrate ([1]; listed as gibberellic acid): no activity was detected
[Ca+2].[Cl-].[Cl-] [Ca^2+],–,moderately inhibited,–
[Cl][Cu][Cl] [Cu^2+],–,no activity,–
[Cl][Mn][Cl] [Mn^2+],–,moderately inhibited,–
"O=C(O)COc1ccc(Cl)cc1Cl [2,4-Dichlorophenoxyacetic acid, 2,4-dichlorophenoxyacetic acid]",0,–,–
Cl.N [NH4^+],–,minimal effect,–
"O=C(O)C=Cc1ccccc1 [Cinnamic acid, cinnamic acid]",0,–,–
[Cl-].[K+] [K],–,double activity,–
"O=C(O)c1ccccc1 [Benzoic acid, benzoic acid]",16.9,–,–
"O=C(O)c1cccc(O)c1 [3-Hydroxybenzoic acid, 3-hydroxybenzoic acid]",1.8,–,–
"O=C(O)/C=C/c1ccc(O)c(O)c1 [Caffeic acid, caffeic acid]",0,–,–
"O=C(O)Cc1c[nH]c2ccccc12 [Indole-3-acetic acid, indole-3-acetic acid]",0,–,Relative activity of GmSAMT1 with substrate ([1]; listed as indole-3-acetic acid): no activity was detected
GmSAMT1 (Glycine max) (protein) MEVAQVLHMNGGVGDASYANNSLVQQKVICLTKPIREEAIRSLYCSTHPRSLAIADLGCSSGPNTLFVVSEFIKIVEKLCRELNHKSPEYKVFLNDLPGNDFNNIFKSLDSVKEKLCDEMESGIGPCYFSGVPGSFYGRVFPYQSLHFVHSSYSLQWLSKVPEGVDNNKGNVYIGSTSPKNVVRAYYEQFQRDFSLFLKCRAEELVEGGRMVLTFLGRRSDDPSSKDGCYIWELLATALSDMVLQGIIREEQLDTFNIPQYTPSPSEVKLEVLKEGSFAINRLEVSEVNWNALDEWNALDFESERSESLSDGEYNVAQCMRAVAEPMLISHFGEAIIEEVFCRYQQILAERMSKEKTKFINVTILLTRKA,–,–,Km [3]: 32.9 ± 1.7 µM and 46.2 ± 4.2 µM
"GmSABP2-1: soybean methyl salicylate esterase gene (SEQ ID NO: 2), over-expressed in transgenic hairy roots (nucleic acid, Glycine Max) DNA: ATGGGTTCACAAAATTGTATGGATAGGAAGCACTATGTTCTGGTGCATGGGGCATGCCATGGAGCTTGGTGTTGGTATAAGCTCAAGCCACGCTTGGAATCTGCAGGCCATAAGGTCACAGTACTTGACCTTGCAGCTTCTGGAACCAACATGAAGAAAATTGAAGATGTTGATACTTTCTCAGAGTATTCTGCGCCTTTGTTGCAGCTAATGGCCACAATTCCCTCAAATGAGAAGTTAGTTCTAGTTGGTCACAGCCTTGGAGGGCTGAACATAGCACTTGCAATGGAGAAATTCCCAGAAAAGGTAGCAGTTGGTGTTTTCTTAACAGCTTTTGCTCCAGACACTGAACACCACCCATCTTATGTCTTGGAAAAGTACAATGAGAGGACCCCGTTAGCTGCATGGTTAGACACTGAATTTGCTCCAAGCGGAAACAAAACATCAATGTTCTTCGGCCCCAACTTCTTGTCCGACAAGCTCTACCAACTGTCCCCTATTGAGGACTTGGAATTGGCCAAGACTTTAGCAAGGCCATCATCGCTCTTCATGGAAGACTTGACTAAACAAAAGAACTTCTCCAAAGAGGGATATGGGTCAGTTCCACGTGCCTTTATTGTTTGCACGGAGGACCTTGGAATTCCATTGGAATATCAGCTCTTGATGATCCAAAATGTTGGGTTCAATGACGTTGTAGAGGTCAAAGACGCAGATCATATGGTTATGCTTTGCAAGCCACAAGAACTATTCGATTCCCTCCAGCAGATAGCGACTAAATATGCATGA",–,–,reduction of susceptibility [4]: 84.5%
